Assays:
[1] = biological target: T1, human C5a2 (Flp-In CHO-C5a2 membranes) (Homo sapiens, UniProt Q9P296); assay: C5a2 receptor binding, scintillation proximity assay (125I-C5a displacement); details: for Ki: inhibition of 125I-C5a binding to C5a2 membranes; for inhibition of 125I-C5a binding to C5a2 membranes, library screen: single concentration of 100 μM, compared to buffer control, P<0.05; for inhibition of 125I-C5a binding to C5aR2 membranes, full concentration response: up to a maximum concentration of 500 μM
T1 construct: expressed in transfected cells
Method: Membranes were prepared from Flp-In CHO-05a2 cells by a previously described method^46. Briefly, cells were washed with PBS, pH 7.4, and harvested into buffer (50 mM Tris-HCl, pH 7.4, 5 mM MgCl2, 1 mM CaCl2) before homogenizing with a Polytron homogenizer for 3 min on setting 22. Cells were centrifuged at 150×g for 5 min at 4° C. The supernatant was recovered and centrifuged at 22 000×g for 1 h at 4° C. Membrane pellets were then resuspended in 0.4 mL of ice-cold buffer (50 mM Tris-HCl, pH 7.4, 5 mM MgCl2, 1 mM CaCl2, containing 10% glycerol) with aliquots stored at −80° C. The protein concentration of the membrane preparation was determined by Bradford method^47.
C5a2 receptor binding studies were performed using a modification of a previously described scintillation proximity assay (SPA) method^48. Briefly, C5a2 SPA studies were performed in 96-well white isoplates with clear flat bottoms (Perkin Elmer, Waltham, Mass., USA). SPA beads (200 μg/well) were added, following the addition of various concentrations of competing ligands or buffer (6 pM to 500 μM) in a total volume of 80 μL of assay buffer (50 mM Tris-HCl, pH 7.4, 0.5% BSA, 5 mM MgCl2, 1 mM CaCl2). ^125I-C5a (˜20 pM) (specific activity, 2200 Ci mmol^−1) (Perkin Elmer) was added to C5a2 membrane preparations (˜2 μg/well). The final reaction volume per well comprised 20 μL of ligand/buffer, 20 μL of SPA beads, 20 μl of membrane and the assay was initiated by the addition of 20 μL of ^125I-C5a. The plate was then sealed using TopSeal-A (Perkin Elmer) sealing film and incubated with shaking for 1 h at room temperature. Radioligand binding was then assessed for 30 s/well using a 1450 Microbeta scintillation counter (Perkin Elmer).

[2] = test system: LPS stimulated HMDM; assay: Cytokine release from LPS stimulated HMDM (ELISA); format: cell-based, human; details: for IL-6 release from LPS stimulated HMDM / IL-10 release from LPS stimulated HMDM / TNFα release from LPS stimulated HMDM: 24 h after co-stimulation with LPS 10 ng/ml, peptides 0.1-100 μM; for IL-6 release from LPS stimulated HMDM in the presence of PMX53: C5a1 antagonist PMX53 10 μM pre-incubated 30 min
Method: FIG. 4 is a panel of graphs showing the testing P32 and P59 for effects on cytokine release from LPS stimulated HMDM. Measurement of human inflammatory cytokines IL-6 (4A, 4B), TNFα (4C, 4D) and IL-10 (4E, 4F) release from HMDM, 24 h after co-stimulation with LPS (10 ngml^−1) and C5a (0.1-100 nM), P32 or P59 (0.1-100 μM) with or without C5a1 antagonist PMX53 (10 μM) present. Cytokine release was quantified by ELISA. Data is representative of five independent HMDM donors performed in triplicate (n=5). CTRL represents non-stimulated HMDM. Data is normalised to LPS response (100%) for each donor. Error bars represent SEM. *P<0.05, ** P<0.01, *** P<0.001, **** P<0.0001 by one-way ANOVA followed by Dunnett's post hoc test or Sidak's post hoc test for comparisons+/−PMX53.
Briefly, HMDMs were seeded in 96 well tissue culture plates (Nunc) at 100 000 cells/well and allowed to adhere overnight at 37° C. and 5% CO2. The next day HMDMs were stimulated with E. coli derived LPS (10 ng ml^−1) only or LPS (10 ng ml^−1) and either C5a or C5a2 ligands at various concentrations (1-100 nM (C5a) or 0.1-100 μM (C5a2 ligands)). For testing cytokine release in the presence of C5a1 antagonist (PMX53), cells were pre-incubated with PMX53 at 10 μM for 30 min prior to addition of C5a or C5a2 ligands. Following ligand addition HMDMs were returned to 37° C. and 5% CO2 incubator and 24 h after stimulation supernatant was removed from cells and transferred to 96 well polypropylene microplate (Nunc) and stored at −20° C. till needed for assay. Quantification of cytokine release was performed using ELISA kits (BD OptEIA™) as per manufacturers' instructions (BD Biosciences, San Jose, Calif., USA).

[3] = biological target: T2, C3aR (Homo sapiens, UniProt Q16581); details: up to a concentration of 100 μM, reference 27; cited from earlier work
T2 sequence (Q16581 1-482): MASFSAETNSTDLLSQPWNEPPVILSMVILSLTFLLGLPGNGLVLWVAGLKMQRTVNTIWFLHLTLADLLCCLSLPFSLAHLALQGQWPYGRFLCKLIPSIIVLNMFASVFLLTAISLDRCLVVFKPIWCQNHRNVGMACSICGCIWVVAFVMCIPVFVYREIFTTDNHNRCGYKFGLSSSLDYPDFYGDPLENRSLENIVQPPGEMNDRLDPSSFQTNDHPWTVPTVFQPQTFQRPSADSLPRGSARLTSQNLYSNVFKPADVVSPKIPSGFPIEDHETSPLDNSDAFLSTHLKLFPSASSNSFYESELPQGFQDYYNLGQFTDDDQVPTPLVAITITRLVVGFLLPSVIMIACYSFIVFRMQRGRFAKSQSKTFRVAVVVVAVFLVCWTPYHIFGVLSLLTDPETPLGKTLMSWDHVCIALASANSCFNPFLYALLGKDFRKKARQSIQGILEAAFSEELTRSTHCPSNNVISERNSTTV

[4] = biological target: T3, C5a1 (Homo sapiens, UniProt P21730); details: up to a concentration of 100 μM, reference 27; cited from earlier work
T3 sequence (P21730 1-350): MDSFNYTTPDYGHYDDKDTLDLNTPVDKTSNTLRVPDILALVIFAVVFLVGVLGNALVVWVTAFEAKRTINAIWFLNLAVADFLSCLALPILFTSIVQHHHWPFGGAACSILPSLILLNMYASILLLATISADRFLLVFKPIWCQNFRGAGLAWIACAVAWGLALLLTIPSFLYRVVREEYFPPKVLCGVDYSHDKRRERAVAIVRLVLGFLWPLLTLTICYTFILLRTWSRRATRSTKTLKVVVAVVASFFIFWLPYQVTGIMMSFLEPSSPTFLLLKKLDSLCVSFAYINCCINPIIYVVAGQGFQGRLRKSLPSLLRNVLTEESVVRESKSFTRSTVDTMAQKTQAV

[5] = biological target: C5a2 (Homo sapiens, UniProt Q9P296); assay: DiscoveRx PathHunter β-arrestin 2 recruitment, C5a2; format: cell-based; set-up: purchased DiscoveRx Corporation (Birmingham, UK); details: 100 μM, data not shown
Chain of C5a2 (Q9P296 whole entry): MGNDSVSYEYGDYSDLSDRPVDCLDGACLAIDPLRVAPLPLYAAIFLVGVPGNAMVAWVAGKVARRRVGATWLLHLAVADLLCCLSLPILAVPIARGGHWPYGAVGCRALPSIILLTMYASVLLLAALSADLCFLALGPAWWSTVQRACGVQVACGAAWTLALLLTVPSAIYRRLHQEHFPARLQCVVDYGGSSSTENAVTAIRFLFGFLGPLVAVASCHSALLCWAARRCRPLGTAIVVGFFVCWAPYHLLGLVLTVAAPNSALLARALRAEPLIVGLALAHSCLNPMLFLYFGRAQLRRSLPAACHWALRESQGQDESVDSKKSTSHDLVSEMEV

T1 sequence (Q9P296 whole entry): as above

Substance | Ki [1] | affinity for C5aR2 over C5aR1 ([1]; ratio of C5aR1 and C5aR2 affinities) | inhibition of 125I-C5a binding to C5a2 membranes, library screen [1] | inhibition of 125I-C5a binding to C5aR2 membranes, full concentration response [1] | IL-6 release from LPS stimulated HMDM [2] | IL-10 release from LPS stimulated HMDM [2] | TNFα release from LPS stimulated HMDM [2] | IL-6 release from LPS stimulated HMDM in the presence of PMX53 [2] | activity (agonist or antagonist) at C3aR [3] | activity (agonist or antagonist) at C5a1 [4] | ligand induced β-arrestin 2 recruitment at C5a2 (PathHunter) [5]
Ac-LIRLWR-OH [Peptide P59, Ac-LIRLWR-OH] | 48 µM | ~10 fold | significant inhibition | dose-dependently inhibited | only showed significant inhibition of IL-6 at 100 μM | no effect | no effect | unaffected | no activity | no activity | showed activity at C5a2
Ac-RHYPYWR-OH [Peptide P32, Ac-RHYPYWR-OH] | 223 µM |  | significant inhibition | dose-dependently inhibited | significant inhibition of IL-6 release at two (10 and 100 μM) of the four doses tested | no effect | no effect | unaffected | no activity | no activity | showed activity at C5a2

From US10280197B2, “Discovery of the first selective C5A receptor 2 (C5L2/C5AR2) ligands” (The Regents of the University of California, priority 2015, dated 2019)
